Test results from patent US20110077237A1, “KINASE INHIBITORS” (VERTEX PHARMACEUTICALS INCORPORATED, priority 2007, published 2011).

Tests used:
Type in all cases: biochemical
PKC theta = PKC theta (Homo sapiens, UniProt Q04759); assay: PKC Theta I coupled-enzyme (NADH absorbance) kinase assay; details: 18 nM PKC theta, 240 μM ATP, 30° C., absorbance at 340 nm
Description: (§1) An assay buffer solution was prepared which consisted of 100 mM HEPES (pH 7.5), 10 mM MgCl2, 25 mM NaCl, 0.1 mM EDTA and 0.01% Brij. […] To 60 μL of this enzyme buffer, in a 384 well plate, was added 2 μL of VRT stock solution in DMSO. The mixture was allowed to equilibrate for 10 mins at 30° C. […] Ki values were calculated from initial rate data by non-linear regression using the Prism software package (Prism 4.0a, Graphpad Software, San Diego, Calif.).

PKC delta kinase = PKC delta kinase (Homo sapiens, UniProt Q05655); assay: PKC Delta coupled-enzyme kinase assay; details: 46 nM PKC delta, 150 μM ATP, 30° C.; read-out: Ki PKC delta
Description: as §1, with “To 16” for “To 60”, “added 1” for “added 2”

PKC alpha kinase = PKC alpha kinase (Homo sapiens, UniProt P17252); assay: PKC Alpha coupled-enzyme kinase assay; details: 4.5 nM PKC alpha, 130 μM ATP, 30° C.
Description: An assay buffer solution was prepared which consisted of 100 mM HEPES (pH 7.5), 10 mM MgCl2, 25 mM NaCl, 0.1 mM EDTA, 100 μM CaCl2 and 0.01% Brij. […] To 16 μL of this enzyme buffer, in a 384 well plate, was added 1 μL of VRT stock solution in DMSO. The mixture was allowed to equilibrate for 10 mins at 30° C. The enzyme reaction was initiated by the addition of 16 μL stock ATP solution prepared in assay buffer to a final assay concentration of 130 μM. Initial rate data was determined from the rate of change of absorbance at 340 nm (corresponding to stoichiometric consumption of NADH) using a Molecular Devices Spectramax plate reader (Sunnyvale, Calif.) over 15 mins at 30° C. For each Ki determination 12 data points covering the VRT concentration range of 0-20 μM were obtained in duplicate (DMSO stocks were prepared from an initial 10 mM VRT stock with subsequent 1:2 serial dilutions). Ki values were calculated from initial rate data by non-linear regression using the Prism software package (Prism 4.0a, Graphpad Software, San Diego, Calif.).

Chain of PKC theta (Q04759 whole entry): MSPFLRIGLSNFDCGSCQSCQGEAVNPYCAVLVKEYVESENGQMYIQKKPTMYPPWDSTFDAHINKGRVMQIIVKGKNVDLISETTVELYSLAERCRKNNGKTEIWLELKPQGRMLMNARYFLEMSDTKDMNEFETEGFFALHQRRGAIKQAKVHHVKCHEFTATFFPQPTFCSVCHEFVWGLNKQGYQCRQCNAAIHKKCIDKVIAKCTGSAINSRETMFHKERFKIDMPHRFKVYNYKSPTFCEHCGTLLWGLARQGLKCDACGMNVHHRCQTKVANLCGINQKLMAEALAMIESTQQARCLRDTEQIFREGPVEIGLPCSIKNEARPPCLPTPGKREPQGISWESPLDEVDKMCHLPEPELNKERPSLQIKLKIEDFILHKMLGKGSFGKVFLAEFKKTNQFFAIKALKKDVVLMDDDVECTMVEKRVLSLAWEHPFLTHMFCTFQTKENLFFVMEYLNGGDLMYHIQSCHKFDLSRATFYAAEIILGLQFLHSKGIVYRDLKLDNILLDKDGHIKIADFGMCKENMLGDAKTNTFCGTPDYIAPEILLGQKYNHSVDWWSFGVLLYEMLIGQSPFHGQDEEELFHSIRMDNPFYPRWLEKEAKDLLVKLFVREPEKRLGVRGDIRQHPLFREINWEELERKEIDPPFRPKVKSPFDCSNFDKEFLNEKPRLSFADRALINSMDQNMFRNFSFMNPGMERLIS
Chain of PKC delta kinase (Q05655 whole entry): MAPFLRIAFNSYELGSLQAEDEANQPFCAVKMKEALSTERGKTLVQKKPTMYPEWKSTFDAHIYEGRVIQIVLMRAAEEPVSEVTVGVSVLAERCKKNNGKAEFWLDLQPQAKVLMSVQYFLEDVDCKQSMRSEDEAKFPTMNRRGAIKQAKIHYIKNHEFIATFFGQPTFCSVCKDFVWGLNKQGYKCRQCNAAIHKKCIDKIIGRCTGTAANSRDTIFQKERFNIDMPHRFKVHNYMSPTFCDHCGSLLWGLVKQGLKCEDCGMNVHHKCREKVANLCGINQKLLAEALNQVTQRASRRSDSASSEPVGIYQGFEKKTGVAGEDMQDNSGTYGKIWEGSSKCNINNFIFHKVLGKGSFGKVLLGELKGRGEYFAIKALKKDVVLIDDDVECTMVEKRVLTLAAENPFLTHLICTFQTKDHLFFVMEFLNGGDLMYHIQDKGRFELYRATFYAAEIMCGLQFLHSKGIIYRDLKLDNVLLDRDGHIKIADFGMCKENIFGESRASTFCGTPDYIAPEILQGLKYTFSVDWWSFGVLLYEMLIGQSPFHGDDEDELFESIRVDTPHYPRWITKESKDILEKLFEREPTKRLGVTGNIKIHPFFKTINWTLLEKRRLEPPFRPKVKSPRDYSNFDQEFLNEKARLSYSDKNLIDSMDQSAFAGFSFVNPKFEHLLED

Row | Ki (PKC theta) | Ki (PKC delta kinase) | Ki (PKC alpha kinase) | SMILES
1 | 500 to 2800 nM | – | – | Nc1ncc(-c2cccnc2)cc1C(=O)c1cccc(N2CCNC(c3ccccc3)C2)n1 (stereo not drawn) [compound 275]
2 | 500 to 2800 nM | 500 to 2800 nM | 500 to 2800 nM | Nc1ncccc1C(=O)c1nc(NCCCO)ccc1C(F)(F)F [compound 419]
3 | 500 to 2800 nM | – | – | CN(Cc1ccccc1)C(=O)c1ccc(C(=O)c2cccnc2N)s1 [compound 103]
4 | 500 to 2800 nM | – | – | Nc1ncccc1C(=O)c1cccc(N2CCC(NC(=O)CC(F)(F)F)CC2)n1 [compound 129]
5 | 500 to 2800 nM | – | – | Nc1ncccc1C(=O)c1nc(N2CCCN(C(=O)CC(F)(F)F)CC2)cs1 [compound 95]
6 | 500 to 2800 nM | – | – | Nc1ncc(Br)cc1C(=O)c1cc(N2CCCNCC2)cs1 [compound 83]
7 | 500 to 2800 nM | – | – | Cc1ccc(C(=O)c2cccnc2N)nc1N1CCNCC1 [compound 236]
8 | 500 to 2800 nM | – | – | Nc1ncc(-c2ccccc2O)cc1C(=O)c1cccc(N2CCNC(c3ccccc3)C2)n1 (stereo not drawn) [compound 259]
9 | 500 to 2800 nM | – | – | C=Cc1cnc(N)c(C(=O)c2cccc(N3CCCN(C(=O)OC(C)(C)C)CC3)n2)c1 [compound 60]
10 | 500 to 2800 nM | – | – | Nc1ncc(Br)cc1C(=O)c1cccc(NC[C@H]2CCCC[C@@H]2O)n1 [compound 174]
11 | 500 to 2800 nM | – | – | Nc1ncccc1C(=O)c1cccc(N2CCN(C(=O)CC(F)(F)F)CC2)n1 [compound 224]
12 | 500 to 2800 nM | – | – | Nc1ncc(NCc2ccccc2)cc1C(=O)c1cccc(N2CCCNCC2)n1 [compound 190]
13 | 500 to 2800 nM | 500 to 2800 nM | > 2800 nM | Cc1cc(C(=O)c2cccnc2N)nn1C1CCCNCC1 (stereo not drawn) [compound 217]
14 | 500 to 2800 nM | – | – | Nc1ncccc1C(=O)c1cccc(N2CCC(N)C2)n1 (stereo not drawn) [compound 85]
15 | 500 to 2800 nM | – | – | Nc1ncc(Br)cc1C(=O)c1cccc(N2CC[C@H](O)C2)n1 [compound 123]
16 | 500 to 2800 nM | – | – | Nc1ncccc1C(=O)c1ccc(Cl)c(N2CCCNCC2)n1 [compound 242]
17 | 500 to 2800 nM | – | – | Nc1ncc(-c2cc3ccccc3[nH]2)cc1C(=O)c1cccc(N2CCCNCC2)n1 [compound 168]

Row | Ki (PKC theta) | Ki (PKC delta kinase) | Ki (PKC alpha kinase) | SMILES
18 | 500 to 2800 nM | 500 to 2800 nM | 500 to 2800 nM | Nc1ncccc1C(=O)c1nc(N2CCC(N)C2)ccc1C(F)(F)F (stereo not drawn) [compound 369]
19 | 500 to 2800 nM | 500 to 2800 nM | – | COC(=O)N1CCCN(c2cccc(C(=O)c3cccnc3N)n2)CC1 [compound 9]
20 | 500 to 2800 nM | – | – | CN(CC(O)c1ccccc1)c1cccc(C(=O)c2cc(Br)cnc2N)n1 (stereo not drawn) [compound 124]
21 | 500 to 2800 nM | – | – | Nc1ncc(Br)cc1C(=O)c1cccc(NCCCN2CCCC2)n1 [compound 177]
22 | 500 to 2800 nM | – | – | CN(C)CCN(Cc1ccccc1)c1cccc(C(=O)c2cc(Br)cnc2N)n1 [compound 143]
23 | 500 to 2800 nM | – | – | CC(C)N(Cc1ccccc1)C(=O)c1ccc(C(=O)c2cccnc2N)s1 [compound 48]
24 | 500 to 2800 nM | – | – | Nc1ncc(Br)cc1C(=O)c1cccc(N2CCCC(c3ccccc3)C2)n1 (stereo not drawn) [compound 145]
25 | 500 to 2800 nM | – | 500 to 2800 nM | CNc1cnc(N)c(C(=O)c2cccc(N3CCCNCC3)n2)c1 [compound 220]
26 | 500 to 2800 nM | – | – | CC(C)(O)C#Cc1cnc(N)c(C(=O)c2cccc(N3CCCNCC3)n2)c1 [compound 147]
27 | 500 to 2800 nM | – | – | COC(=O)N1CCCN(c2cccc(C(=O)c3cc(Br)cnc3N)n2)CC1 [compound 69]
28 | 500 to 2800 nM | – | – | Nc1ncccc1C(=O)c1cccc(N2CCN[C@@H](Cc3ccccc3)C2)n1 [compound 215]
29 | 500 to 2800 nM | – | – | Cc1cc(C(=O)c2cccnc2N)nc(N2CCCNCC2)c1 [compound 189]
30 | 500 to 2800 nM | – | – | Nc1ncc(C2=CCCCC2)cc1C(=O)c1cccc(N2CCCNCC2)n1 [compound 185]
31 | 500 to 2800 nM | – | – | Nc1ncccc1C(=O)c1cc(N2CCCNCC2)cs1 [compound 84]
32 | 500 to 2800 nM | – | – | Nc1ncccc1C(=O)c1cccc(N2CCCN(C(=O)Oc3ccccc3Cl)CC2)n1 [compound 15]
33 | 500 to 2800 nM | – | – | Cc1ccc(C(=O)c2cccnc2N)nc1N1CCCNCC1 [compound 229]

Second part, the compound before the results:

Row | SMILES | Ki (PKC theta) | Ki (PKC delta kinase) | Ki (PKC alpha kinase)
34 | CCN(Cc1ccccc1)c1cccc(C(=O)c2cc(Br)cnc2N)n1 [compound 142] | 500 to 2800 nM | – | –
35 | Nc1ncc(Br)cc1C(=O)c1cccc(N2CCNC(=O)C2)n1 [compound 196] | 500 to 2800 nM | – | –
36 | Nc1ncccc1C(=O)c1nc(N2CCNCC2)ccc1C1CC1 [compound 354] | 500 to 2800 nM | 500 to 2800 nM | > 2800 nM
37 | Nc1ncccc1C(=O)c1cccc(N2CCCN(Cc3ccccc3)CC2)n1 [compound 160] | 500 to 2800 nM | – | –
38 | CC(C)[C@H](CN)Nc1ccc(C(F)(F)F)c(C(=O)c2cccnc2N)n1 [compound 370] | 500 to 2800 nM | 500 to 2800 nM | 500 to 2800 nM
39 | Nc1ncccc1C(=O)c1cccc(N2CCCN(C(=O)Oc3ccccc3)CC2)n1 [compound 52] | 500 to 2800 nM | – | –
40 | C[C@@H]1CNC[C@H](C)N1c1cccc(C(=O)c2cccnc2N)n1 [compound 234] | 500 to 2800 nM | – | –
41 | CC(C)(C)C(O)C(=O)N1CCCN(c2cccc(C(=O)c3cccnc3N)n2)CC1 (stereo not drawn) [compound 41] | 500 to 2800 nM | > 2800 nM | –
42 | CCCNc1ccc(C(F)(F)F)c(C(=O)c2cccnc2N)n1 [compound 398] | 500 to 2800 nM | 500 to 2800 nM | 500 to 2800 nM
43 | Nc1ncc(-c2ccccc2CO)cc1C(=O)c1cccc(N2CCNC(c3ccccc3)C2)n1 (stereo not drawn) [compound 281] | 500 to 2800 nM | – | –
44 | CNC1CCN(c2cccc(C(=O)c3cccnc3N)n2)CC1 [compound 159] | 500 to 2800 nM | – | –
45 | Nc1ncccc1C(=O)c1nc(N2CCNCC2)ccc1C#CC1CC1 [compound 409] | 500 to 2800 nM | 500 to 2800 nM | 500 to 2800 nM
46 | Nc1ncccc1C(=O)c1cc(N2CCNCC2)ncc1F [compound 319] | 500 to 2800 nM | – | –
47 | Nc1ncccc1C(=O)c1nc(NC2CCNC2)ccc1C(F)(F)F (stereo not drawn) [compound 376] | 500 to 2800 nM | 500 to 2800 nM | 500 to 2800 nM
48 | Nc1ncccc1C(=O)c1csc(N2CCCNCC2)n1 [compound 125] | 500 to 2800 nM | – | –
49 | CC(C)(O)C(=O)N1CCCN(c2cccc(C(=O)c3cccnc3N)n2)CC1 [compound 19] | 500 to 2800 nM | > 2800 nM | –
50 | CC(C)(N)CNc1ccc(C(F)(F)F)c(C(=O)c2cccnc2N)n1 [compound 368] | 500 to 2800 nM | 500 to 2800 nM | 500 to 2800 nM
51 | Nc1ncccc1C(=O)c1ccn(C2CCCNCC2)n1 (stereo not drawn) [compound 203] | 500 to 2800 nM | 500 to 2800 nM | 500 to 2800 nM

Row | SMILES | Ki (PKC theta) | Ki (PKC delta kinase) | Ki (PKC alpha kinase)
52 | NCCCOc1ccc(C(F)(F)F)c(C(=O)c2cccnc2N)n1 [compound 405] | 500 to 2800 nM | 500 to 2800 nM | 500 to 2800 nM
53 | Nc1ncccc1C(=O)c1cccc(N2CCC(NC3CC3)CC2)n1 [compound 148] | 500 to 2800 nM | – | –
54 | NC(=O)C1CCCN(c2cccc(C(=O)c3cc(Br)cnc3N)n2)C1 (stereo not drawn) [compound 122] | 500 to 2800 nM | – | –
55 | Nc1ncccc1C(=O)c1cccc(N2CCCN(C(=O)C3CC3)CC2)n1 [compound 36] | 500 to 2800 nM | – | –
56 | N#CCCN1CCN(c2cccc(C(=O)c3cc(Br)cnc3N)n2)CC1 [compound 96] | 500 to 2800 nM | – | –
57 | Nc1ncc(Br)cc1C(=O)c1cccc(N2CCN(CCO)CC2)n1 [compound 97] | 500 to 2800 nM | – | –
58 | Nc1ncc(Br)cc1C(=O)c1cccc(N2CCN(C3CCCC3)CC2)n1 [compound 144] | 500 to 2800 nM | – | –
59 | Nc1ncccc1C(=O)c1cccc(N2CCCN(C(=O)CC3CCCCC3)CC2)n1 [compound 39] | 500 to 2800 nM | > 2800 nM | –
60 | Nc1ncccc1C(=O)c1ccnc(N2CCCNCC2)n1 [compound 111] | 500 to 2800 nM | – | –
61 | Nc1ncccc1C(=O)c1cccc(N2CCCN(C(=O)c3ccccc3)CC2)n1 [compound 32] | 500 to 2800 nM | > 2800 nM | –
62 | Cc1cn(C2CCCNCC2)nc1C(=O)c1cccnc1N (stereo not drawn) [compound 212] | 500 to 2800 nM | – | –
63 | CN1CCN(c2cccc(C(=O)c3cccnc3N)n2)CC1 [compound 216] | 500 to 2800 nM | – | –
64 | Nc1ncccc1C(=O)c1cccc(N2CCN[C@H](Cc3ccccc3)C2)n1 [compound 250] | 500 to 2800 nM | – | –
65 | Nc1ncc(Br)cc1C(=O)c1cccc(NCCN2CCCCC2)n1 [compound 141] | 500 to 2800 nM | – | –
66 | Nc1ncccc1C(=O)c1cccc(C2CCNCC2)n1 [compound 257] | 500 to 2800 nM | – | –
67 | Nc1ncccc1C(=O)c1cccc(N2CCCN(C(=O)C3CCCCC3)CC2)n1 [compound 38] | 500 to 2800 nM | – | –
68 | Nc1ncccc1C(=O)c1nc(Cl)cnc1N1CCNCC1 [compound 340] | – | > 2800 nM | > 2800 nM
69 | CC(C)C[C@H]1CN(c2ccnc(C(=O)c3cccnc3N)n2)CCN1 [compound 345] | – | > 2800 nM | 500 to 2800 nM
